The results in this text go back to US10889563B2, “Deoxyuridine triphosphatase inhibitors” (University of Southern California, priority 2013, dated 2021).

Each structure is given as a SMILES string. Some results are limits rather than exact numbers.

The subject of data set [1] is HCT-8 colorectal cell line model. Kind of data set: Colony formation assay, HCT-8. To be noted: HCT-8, increasing concentrations of compound plus fixed 1 μmol/L FUdR, vs single agents. In kind it is cell-based. As to the method:
(§1) Colony forming assay showing the ability of colon (SW620, HCT 116), non-small cell lung (A549, H460, H1299 and H358) and breast (MCF7) cancer cells to survive and proliferate following transient 24 hour exposure to single agent PCI 1013, FUdR and combinations. Specifically, cells were seeded at densities between 50 and 100 cells/well in 24-well plates. Twenty-four hours later, cells were treated with increasing concentrations of PCI 10213, a fixed dose of FUdR and combinations of these. After 24 hours, drug was removed, cells were rinsed and allowed to outgrow for 10-14 days. At the conclusion of the outgrowth, cells were fixed in 60% ice cold methanol and stained with 0.1% crystal violet, scanned and counted. Data is presented as percentage of untreated controls (mean±SD). Fraction affected and combination indexes were calculated according to the method of Chou and Talalay where <1 is indicative of a synergistic drug interaction.
Colony forming assays were subsequently performed to evaluate the effectiveness of additional PCI compounds alone and in combination with FUdR at reducing cancer cell viability in the HCT-8 colorectal cell line model. […] Subsequently, increasing concentrations of PCI compounds were combined with a fixed dose of 1 μmol/L FUdR to evaluate the combined drug effect.

Data set [2] deals with HCT116 cells. Kind of data set: Colony formation assay, HCT116. In kind it is cell-based. The settings on record: HCT116, increasing concentrations of compound plus fixed 0.5 μmol/L FUdR, vs single agents. As for the experimental part: as §1, with “interaction. […]” for “interaction.”
In colorectal cancer cells, concentrations of PCI 10213 ranging from 3.1 μmol/L to 50 μmol/L were combined with 0.5 μmol/L FUdR in HCT116 cells and 1 μmol/L FUdR in SW620 cells.

The subject of data set [3] is HCT116 cells.
Another data set concerns SW620 cells. Nature of the data set: MTS growth inhibition assay, SW620. (In general: Formazan colour is commonly taken as a measure of viable cells.)
The test system of the next data set is A549 cells. Nature of the data set: MTS growth inhibition assay, A549. To be noted: A549, 72 hours, 100 μmol/L single agent.
The next data set has as its system H1299 cells. Nature of the data set: MTS growth inhibition assay, H1299. The settings on record: H1299, 72 hours, 100 μmol/L single agent.
The subject of data set [4] is colorectal (HCT116), breast (MCF-7) and non-small cell lung (H1299, A549, H358 and H460) cell line models. Kind of data set: Colony formation assay, all cell lines evaluated. In kind it is cell-based. The settings on record: all cell lines examined (cell lines not named at b507). As for the experimental part: as §1
Subsequently, increasing concentrations of PCI 10213 were combined with a fixed dose of FUdR to evaluate the combined drug effect. In NSCLC cells, concentrations of PCI 10213 ranging from 3.1 μmol/L to 25 μmol/L were combined with 1 μmol/L FUdR. […] The effectiveness of this combination was pronounced in A549 and H460 cells where 12.5 and 25 μmol/L PCI 10213 combined with 1 μmol/L FUdR reduced cell viability by >95% compared to vehicle-treated controls.

Method for A549 cells: (§2) The Cell Titer^96 AQueous MTS assay (Promega) was carried out according to the manufacturers guidelines. […] The combination effect was determined by the combination index (CI) method utilizing Calcusyn software (Biosoft, Ferguson, Mo.). Fraction affected (FA) was calculated from the percent growth inhibition: FA=(100−% growth inhibition)/100. CI values <1, synergism; 1-1.2, additive and >1.2, antagonism.
(§3) The NSCLC cell lines A549 and H1299 were exposed to increasing concentrations of each agent for 72 hours and growth inhibition was directly compared to vehicle-treated controls.
Method for H1299 cells: as §2, §3
Method for SW620 cells: as §2
HCT116 and SW620 cells were exposed to increasing concentrations of each agent for 72 hours and growth inhibition was directly compared to vehicle-treated controls.

Regarding `CC[C@@](O)(Cn1nncc1CCCNC1CCC(=O)NC1=O)c1ccc(F)c(OCC2CC2)c1` (some centres unmarked) [PCI 10927], the “colonies formed / combined drug effect with FUdR” value in data set [1] is “Substantial reductions in colonies formed”.
Turning to `CC[C@@](O)(Cn1nncc1CCCCC1CCC(=O)NC1=O)c1ccc(F)c(OCC2CC2)c1` (some centres unmarked) [PCI 10951], in data set [1], the “colonies formed / combined drug effect with FUdR” value is “Substantial reductions in colonies formed”. In the data set on HCT116 cells [2], the “colonies formed, combination with FUdR” value was “Substantial reductions in colonies formed”.
On to `CC[C@@](O)(Cn1nncc1CCCCC1C(=O)Nc2ncccc21)c1ccc(F)c(OCC2CC2)c1` (some centres unmarked) [PCI 10930], for which the “colonies formed / combined drug effect with FUdR” value in data set [1] is “Substantial reductions in colonies formed”.
`C[C@@H](NS(=O)(=O)CC/C=C/CC1SC(=O)NC1=O)c1cccc(OCC2CC2)c1` (some centres unmarked) [PCI 10214]: the “single agent activity (growth inhibition vs vehicle)” value is recorded as “little to no single agent activity” in the data set with HCT116 cells [3] (HCT116, 72 hours, up to 75 μmol/L) and “neither PCI 10213 or 10214 had any single agent activity” in the data set with SW620 cells (SW620, 72 hours, up to 75 μmol/L). Further, in the data set on SW620 cells (SW620, 72 hours, 100 μmol/L single agent), the “single agent activity / decrease in proliferation” value is given as about 30%. The “decrease in growth / reduction in proliferation” value in the data set with A549 cells is about 25%. Moreover, the “decrease in cell proliferation” value in the data set on H1299 cells is reported as at most 40%.
Turning to `CC[C@@](O)(Cn1nncc1CCCCC1Cc2cccc(OC)c2NC1=O)c1ccc(F)c(OCC2CC2)c1` (some centres unmarked) [PCI 10929], the “colonies formed / combined drug effect with FUdR” value in data set [1] is on record as “Substantial reductions in colonies formed”.
In the case of `CC[C@@](O)(Cn1nncc1CCCCCC1CCC(=O)NC1=O)c1ccc(F)c(OCC2CC2)c1` (some centres unmarked) [PCI 10952], the “colonies formed, combination with FUdR” value in the data set on HCT116 cells [2] was “modest reductions in colonies formed”.
On to `CC[C@@](O)(Cn1nncc1CCCCc1cnc2c(c1)CCC(=O)N2)c1ccc(F)c(OCC2CC2)c1` [PCI 10928], for which the “colonies formed / combined drug effect with FUdR” value in data set [1] is “Substantial reductions in colonies formed”.
As for `O=c1[nH]cc(F)c(=O)[nH]1` [5-FU, 5-fluorouracil, reference compound], the “growth inhibition, 5-FU alone” value is “dose-dependent increases in growth inhibition” in the data set on HCT116 cells [3] (HCT116, 0 to 100 μmol/L) and “dose-dependent increases in growth inhibition” in the data set with SW620 cells (SW620, 0 to 100 μmol/L).
Turning to `CC[C@@](O)(Cn1nncc1CCCCn1ccc(=O)[nH]c1=O)c1ccc(F)c(OCC2CC2)c1` [PCI 10950, reference compound], the “colonies formed / combined drug effect with FUdR” value in data set [1] was “strong synergy”. Also, the “combined drug effect with fixed doses of FUdR” value in data set [4] is recorded as “strong synergy”.
Regarding `CC[C@@](O)(Cn1nncc1CCCCNC1(C)CCC(=O)NC1=O)c1ccc(F)c(OCC2CC2)c1` (some centres unmarked) [PCI 10933], the “colonies formed / combined drug effect with FUdR” value in data set [1] is “Substantial reductions in colonies formed”.
